# From PubChem BioAssay (NCI)
#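 Each compound was tested at five concentrations against cells in 96-well plates for 48 hours. TGI: concentration producing complete growth inhibition.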
# Experiments:
# Test in all cases: NCI-60 cell line screen, 48 h
# 786-0 renal = tested on: 786-0 renal
# A498 renal = tested on: A498 renal
# A549 NSCLC = tested on: A549 NSCLC
# ACHN renal = tested on: ACHN renal
# CAKI-1 renal = tested on: CAKI-1 renal
# CCRF-CEM leukemia = tested on: CCRF-CEM leukemia
# COLO 205 colon = tested on: COLO 205 colon
# DLD-1 colon = tested on: DLD-1 colon
# DMS 114 small cell lung = tested on: DMS 114 small cell lung
# DMS 273 small cell lung = tested on: DMS 273 small cell lung
# EKVX NSCLC = tested on: EKVX NSCLC
# HCC-2998 colon = tested on: HCC-2998 colon
# HCT-116 colon = tested on: HCT-116 colon
# HCT-15 colon = tested on: HCT-15 colon
# HL-60(TB) leukemia = tested on: HL-60(TB) leukemia
# HOP-18 NSCLC = tested on: HOP-18 NSCLC
# HOP-62 NSCLC = tested on: HOP-62 NSCLC
# HOP-92 NSCLC = tested on: HOP-92 NSCLC
# HT29 colon = tested on: HT29 colon
# IGROV1 ovarian = tested on: IGROV1 ovarian
# K-562 leukemia = tested on: K-562 leukemia
# KM12 colon = tested on: KM12 colon
# KM20L2 colon = tested on: KM20L2 colon
# LOX IMVI melanoma = tested on: LOX IMVI melanoma
# LXFL 529 NSCLC = tested on: LXFL 529 NSCLC
# M14 melanoma = tested on: M14 melanoma
# M19-MEL melanoma = tested on: M19-MEL melanoma
# MALME-3M melanoma = tested on: MALME-3M melanoma
# MOLT-4 leukemia = tested on: MOLT-4 leukemia
# NCI-H226 lung = tested on: NCI-H226 lung
# NCI-H23 lung = tested on: NCI-H23 lung
# NCI-H460 lung = tested on: NCI-H460 lung
# NCI-H522 lung = tested on: NCI-H522 lung
# OVCAR-3 ovarian = tested on: OVCAR-3 ovarian
# OVCAR-4 ovarian = tested on: OVCAR-4 ovarian
# OVCAR-5 ovarian = tested on: OVCAR-5 ovarian
# OVCAR-8 ovarian = tested on: OVCAR-8 ovarian
# RPMI-8226 leukemia = tested on: RPMI-8226 leukemia
# RXF 393 renal = tested on: RXF 393 renal
# SF-268 CNS = tested on: SF-268 CNS
# SF-295 CNS = tested on: SF-295 CNS
# SF-539 CNS = tested on: SF-539 CNS
# SK-MEL-2 melanoma = tested on: SK-MEL-2 melanoma
# SK-MEL-28 melanoma = tested on: SK-MEL-28 melanoma
# SK-MEL-5 melanoma = tested on: SK-MEL-5 melanoma
# SK-OV-3 ovarian = tested on: SK-OV-3 ovarian
# SN12C renal = tested on: SN12C renal
# SNB-19 CNS = tested on: SNB-19 CNS
# SNB-75 CNS = tested on: SNB-75 CNS
# SNB-78 CNS = tested on: SNB-78 CNS
# SW-620 colon = tested on: SW-620 colon
# TK-10 renal = tested on: TK-10 renal
# U251 CNS = tested on: U251 CNS
# UACC-257 melanoma = tested on: UACC-257 melanoma
# UO-31 renal = tested on: UO-31 renal
# XF 498 CNS = tested on: XF 498 CNS
# UACC-62 melanoma = tested on: UACC-62 melanoma
smiles,measurement,setting,value
CC(C)=CC(=O)C1c2cccc(O)c2C(=O)c2c(O)cc(C)cc21 (stereo not given),TGI,786-0 renal,16.1 µM
same,TGI,A498 renal,37.3 µM
same,TGI,A549 NSCLC,4.31 µM
same,TGI,ACHN renal,4.77 µM
same,TGI,CAKI-1 renal,21.5 µM
same,TGI,CCRF-CEM leukemia,> 100 µM
same,TGI,COLO 205 colon,3.4 µM
same,TGI,DLD-1 colon,7.89 µM
same,TGI,DMS 114 small cell lung,3.57 µM
same,TGI,DMS 273 small cell lung,9.46 µM
same,TGI,EKVX NSCLC,31.5 µM
same,TGI,HCC-2998 colon,5.67 µM
same,TGI,HCT-116 colon,6.39 µM
same,TGI,HCT-15 colon,10.6 µM
same,TGI,HL-60(TB) leukemia,9.15 µM
same,TGI,HOP-18 NSCLC,4.03 µM
same,TGI,HOP-62 NSCLC,7.87 µM
same,TGI,HOP-92 NSCLC,7.83 µM
same,TGI,HT29 colon,20.5 µM
same,TGI,IGROV1 ovarian,4.76 µM
same,TGI,K-562 leukemia,> 100 µM
same,TGI,KM12 colon,3.17 µM
same,TGI,KM20L2 colon,17.6 µM
same,TGI,LOX IMVI melanoma,3.74 µM
same,TGI,LXFL 529 NSCLC,4.47 µM
same,TGI,M14 melanoma,10.1 µM
same,TGI,M19-MEL melanoma,3.43 µM
same,TGI,MALME-3M melanoma,7.93 µM
same,TGI,MOLT-4 leukemia,20.7 µM
same,TGI,NCI-H226 lung,4.65 µM
same,TGI,NCI-H23 lung,6.55 µM
same,TGI,NCI-H460 lung,10.1 µM
same,TGI,NCI-H522 lung,3.85 µM
same,TGI,OVCAR-3 ovarian,3.7 µM
same,TGI,OVCAR-4 ovarian,4.52 µM
same,TGI,OVCAR-5 ovarian,5.13 µM
same,TGI,OVCAR-8 ovarian,7.58 µM
same,TGI,RPMI-8226 leukemia,30.4 µM
same,TGI,RXF 393 renal,4.39 µM
same,TGI,SF-268 CNS,5.3 µM
same,TGI,SF-295 CNS,3.39 µM
same,TGI,SF-539 CNS,3.04 µM
same,TGI,SK-MEL-2 melanoma,3.6 µM
same,TGI,SK-MEL-28 melanoma,9.04 µM
same,TGI,SK-MEL-5 melanoma,4.06 µM
same,TGI,SK-OV-3 ovarian,8.48 µM
same,TGI,SN12C renal,25.4 µM
same,TGI,SNB-19 CNS,16.3 µM
same,TGI,SNB-75 CNS,4.68 µM
same,TGI,SNB-78 CNS,7.84 µM
same,TGI,SW-620 colon,10.2 µM
same,TGI,TK-10 renal,7.83 µM
same,TGI,U251 CNS,3.82 µM
same,TGI,UACC-257 melanoma,8.5 µM
same,TGI,UO-31 renal,3.74 µM
same,TGI,XF 498 CNS,3.11 µM
O=C(O)CCc1coc2ccc(O)cc12,TGI,786-0 renal,> 100 µM
same,TGI,A498 renal,> 100 µM
same,TGI,A549 NSCLC,> 100 µM
same,TGI,ACHN renal,> 100 µM
same,TGI,CAKI-1 renal,> 100 µM
same,TGI,CCRF-CEM leukemia,> 100 µM
same,TGI,COLO 205 colon,> 100 µM
same,TGI,DLD-1 colon,> 100 µM
same,TGI,DMS 114 small cell lung,> 100 µM
same,TGI,DMS 273 small cell lung,> 100 µM
same,TGI,EKVX NSCLC,> 100 µM
same,TGI,HCC-2998 colon,> 100 µM
same,TGI,HCT-116 colon,> 100 µM
same,TGI,HCT-15 colon,> 100 µM
same,TGI,HL-60(TB) leukemia,> 100 µM
same,TGI,HOP-18 NSCLC,> 100 µM
same,TGI,HOP-62 NSCLC,> 100 µM
same,TGI,HOP-92 NSCLC,> 100 µM
same,TGI,HT29 colon,> 100 µM
same,TGI,IGROV1 ovarian,> 100 µM
same,TGI,K-562 leukemia,> 100 µM
same,TGI,KM20L2 colon,> 100 µM
same,TGI,LOX IMVI melanoma,> 100 µM
same,TGI,LXFL 529 NSCLC,> 100 µM
same,TGI,M14 melanoma,> 100 µM
same,TGI,M19-MEL melanoma,> 100 µM
same,TGI,MOLT-4 leukemia,> 100 µM
same,TGI,NCI-H23 lung,> 100 µM
same,TGI,NCI-H460 lung,> 100 µM
same,TGI,OVCAR-3 ovarian,> 100 µM
same,TGI,OVCAR-4 ovarian,> 100 µM
same,TGI,OVCAR-8 ovarian,> 100 µM
same,TGI,RPMI-8226 leukemia,> 100 µM
same,TGI,RXF 393 renal,> 100 µM
same,TGI,SF-295 CNS,> 100 µM
same,TGI,SF-539 CNS,> 100 µM
same,TGI,SK-MEL-28 melanoma,> 100 µM
same,TGI,SK-MEL-5 melanoma,> 100 µM
same,TGI,SK-OV-3 ovarian,> 100 µM
same,TGI,SN12C renal,> 100 µM
same,TGI,SNB-19 CNS,> 100 µM
same,TGI,SNB-75 CNS,> 100 µM
same,TGI,SNB-78 CNS,> 100 µM
same,TGI,SW-620 colon,> 100 µM
same,TGI,TK-10 renal,> 100 µM
same,TGI,U251 CNS,> 100 µM
same,TGI,UACC-257 melanoma,> 100 µM
same,TGI,UACC-62 melanoma,> 100 µM
same,TGI,XF 498 CNS,> 100 µM
